From PubChem BioAssay AID248 (DTP/NCI, 2004)
Values joined by “and” are separate entries in the source; they are usually repeats but may differ in a detail not shown here. Identical values can stand only once. Inconclusive results and toxic doses are left out.

Test system: L1210 leukemia ip in BDF1 mice, survival T/C
Experiment: NCI In Vivo Anticancer Drug Screen. Data for tumor model L1210 Leukemia (intraperitoneal) in B6D2F1 (BDF1) mice
Conditions: endpoint: mean survival time, higher = longer survival
In short: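 Value reflects the ratio of survival in compound-treated mice to survival in vehicle-treated controls, with both groups carrying the same transplanted tumor.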

[1] = dose: 100.0 mg/kg/injection, schedule: Q04DX003 (ip), vehicle: saline
[2] = dose: 200.0 mg/kg/injection, schedule: Q04DX003 (ip), vehicle: saline
[3] = dose: 100.0 mg/kg/injection, schedule: Q01DX001 (ip), vehicle: carboxymethylcellulose (CMC)
[4] = dose: 200.0 mg/kg/injection, schedule: Q01DX001 (ip), vehicle: carboxymethylcellulose (CMC)
[5] = dose: 400.0 mg/kg/injection, schedule: Q01DX001 (ip), vehicle: carboxymethylcellulose (CMC)

C[PH+](c1ccccc1)c1ccccc1.C[PH+](c1ccccc1)c1ccccc1.[Br][Pd][Br]
T/C (dose: 50.0 mg/kg/injection, schedule: Q04DX003 (ip), vehicle: saline): 98 % of control | T/C [1]: 105 % of control | T/C [2]: 100 % of control

Cc1ccc(N=C2N(c3ccccc3)N(c3ccccc3)C2(c2ccccc2)c2ccccc2)cc1
T/C [3]: 92 % of control | T/C [4]: 88 % of control | T/C [5]: 88 % of control

COc1ccc(Cl)cc1NC(=O)Nc1cccc2c(O)cccc12
T/C (dose: 100.0 mg/kg/injection, schedule: Q01DX009 (ip), vehicle: saline): 96 % of control | T/C [1]: 107 % of control | T/C (dose: 200.0 mg/kg/injection, schedule: Q01DX009 (ip), vehicle: saline): 100 % of control | T/C [2]: 107 % of control | T/C (dose: 400.0 mg/kg/injection, schedule: Q01DX009 (ip), vehicle: saline): 96 % of control | T/C (dose: 400.0 mg/kg/injection, schedule: Q04DX003 (ip), vehicle: saline): 103 % of control

NNC(=O)c1ccc(Cl)cc1Cl
T/C (dose: 6.25 mg/kg/injection, schedule: Q04DX003 (ip), vehicle: saline sonified): 97 % of control | T/C (dose: 12.5 mg/kg/injection, schedule: Q01DX009 (ip), vehicle: Klucel (hydroxypropylcellulose) (HPC)): 96 % of control | T/C (dose: 12.5 mg/kg/injection, schedule: Q04DX003 (ip), vehicle: saline sonified): 101 % of control | T/C (dose: 25.0 mg/kg/injection, schedule: Q01DX009 (ip), vehicle: Klucel (hydroxypropylcellulose) (HPC)): 106 % of control | T/C (dose: 25.0 mg/kg/injection, schedule: Q04DX003 (ip), vehicle: saline sonified): 95 % of control

CCOC(=O)/C=C(\C)N(C(=O)N(CCCl)N=O)c1ccccc1
T/C (dose: 0.12 mg/kg/injection, schedule: Q01DX009 (ip), vehicle: Klucel (hydroxypropylcellulose) (HPC)): 118 % of control | T/C (dose: 0.5 mg/kg/injection, schedule: Q01DX009 (ip), vehicle: Klucel (hydroxypropylcellulose) (HPC)): 159 % of control | T/C (dose: 1.0 mg/kg/injection, schedule: Q01DX001 (ip), vehicle: carboxymethylcellulose (CMC)): 103 % of control | T/C (dose: 1.0 mg/kg/injection, schedule: Q01DX009 (ip), vehicle: Klucel (hydroxypropylcellulose) (HPC)): 232 % of control | T/C (dose: 2.0 mg/kg/injection, schedule: Q01DX001 (ip), vehicle: carboxymethylcellulose (CMC)): 103 % of control and 119 % of control | T/C (dose: 4.0 mg/kg/injection, schedule: Q01DX001 (ip), vehicle: carboxymethylcellulose (CMC)): 109 % of control | T/C (dose: 6.0 mg/kg/injection, schedule: Q01DX009 (ip), vehicle: carboxymethylcellulose (CMC)): 161 % of control | T/C (dose: 8.0 mg/kg/injection, schedule: Q01DX001 (ip), vehicle: carboxymethylcellulose (CMC)): 104 % of control | T/C (dose: 8.8 mg/kg/injection, schedule: Q01DX009 (ip), vehicle: carboxymethylcellulose (CMC)): 163 % of control | T/C (dose: 13.0 mg/kg/injection, schedule: Q01DX009 (ip), vehicle: Klucel (hydroxypropylcellulose) (HPC)): 120 % of control | T/C (dose: 13.3 mg/kg/injection, schedule: Q01DX009 (ip), vehicle: carboxymethylcellulose (CMC)): 121 % of control | T/C (dose: 15.0 mg/kg/injection, schedule: Q01DX001 (ip), vehicle: carboxymethylcellulose (CMC)): 153 % of control | T/C (dose: 20.0 mg/kg/injection, schedule: Q01DX009 (ip), vehicle: carboxymethylcellulose (CMC)): 110 % of control | T/C (dose: 30.0 mg/kg/injection, schedule: Q01DX001 (ip), vehicle: carboxymethylcellulose (CMC)): 104 % of control and 231 % of control and 86 % of control | T/C (dose: 30.0 mg/kg/injection, schedule: Q01DX009 (ip), vehicle: Klucel (hydroxypropylcellulose) (HPC)): 90 % of control | T/C (dose: 30.0 mg/kg/injection, schedule: Q01DX009 (ip), vehicle: carboxymethylcellulose (CMC)): 100 % of control | T/C (dose: 45.0 mg/kg/injection, schedule: Q01DX001 (ip), vehicle: carboxymethylcellulose (CMC)): 155 % of control | T/C (dose: 60.0 mg/kg/injection, schedule: Q01DX001 (ip), vehicle: carboxymethylcellulose (CMC)): 109 % of control and 204 % of control | T/C (dose: 120.0 mg/kg/injection, schedule: Q01DX001 (ip), vehicle: carboxymethylcellulose (CMC)): 114 % of control

COc1ccc(OC)c2c(OC(C)=O)c3ccccc3c(OC(C)=O)c12
T/C (dose: 50.0 mg/kg/injection, schedule: Q01DX001 (ip), vehicle: carboxymethylcellulose (CMC)): 98 % of control | T/C [3]: 108 % of control | T/C [4]: 98 % of control | T/C [5]: 110 % of control
